From PubChem BioAssay (NCI) come the findings set out here.

The term GI50 denotes the concentration that inhibits growth by half. One may read the TGI as the concentration giving total growth inhibition. High values mean less potent growth arrest, low ones more potent growth arrest.

SMILES strings stand for the structures.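 Cultured in 96-well plates, cells were exposed to test compound for 48 hours across five concentrations. At the GI50, growth is halved. TGI: total growth inhibition.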 A value given as a limit tells only on which side of the number the result lay.

Common to all, as to test: DTP human tumour cell line panel, 48 h
The subject of assay [1] is HL-60(TB) leukemia.
In assay [2] the test system is HT29 colon.
The test system of assay [3] is SR leukemia.
The test system of assay [4] is SK-MEL-28 melanoma.
Assay [5] deals with EKVX NSCLC.
In assay [6] the test system is ACHN renal.
For assay [7], the system named is NCI-H522 lung.
For assay [8], the system named is OVCAR-5 ovarian.
The test system of assay [9] is SN12C renal.
The subject of assay [10] is K-562 leukemia.

On to `Clc1ccc(CO/N=C(\Cn2ccnc2)c2ccc(Cl)cc2Cl)c(Cl)c1`, for which the GI50 in assay [1] is 2.08 µM; in assay [2] it was 1.65 µM; in assay [3], 1.65 µM; in [4] it was 1.67 µM; in [5] it was 1.43 µM; in assay [6], 1.76 µM. Besides, the GI50 in [7] was 1.52 µM; in [8], 1.67 µM; in [9] it was 1.44 µM. For the same compound, the TGI in assay [1] came to 4.62 µM; in assay [2] it was 3.33 µM; in assay [3], 4.29 µM; in assay [4] it was 3.07 µM; in assay [5], 2.83 µM; in [6] it was 3.17 µM. Besides, the TGI in assay [7] is 3.28 µM; in assay [8] it was 3.26 µM; in assay [9], 2.93 µM.

With `Cc1cc(C)nc(SC2=C(Nc3cccc(Cl)c3)C(=O)N(Cc3ccccc3)C2=O)n1`, the GI50 is over 170 µM in assay [1]; over 170 µM in [2]; 5.25 µM in assay [10]; over 170 µM in assay [3]; over 170 µM in assay [4]; over 170 µM in [5]. In addition, the GI50 in assay [6], in [7] and in assay [8] was over 170 µM in each case. In addition, the TGI in [1], in assay [2], in assay [10], in assay [3], in assay [4] and in [5] was over 170 µM throughout. Further, the concentration for total growth inhibition (TGI) in assay [6], in assay [7] and in [8] was over 170 µM in each case.

Regarding `CCC(=C(c1ccc(OCc2ccccc2)cc1)c1ccc(OCc2ccccc2)cc1)c1ccc(OC)cc1`, the TGI in assay [1], in [2], in [10], in [3], in assay [4] and in assay [5] was over 100 µM throughout. In addition, the total growth inhibition concentration (TGI) in assay [6], in assay [7], in [8] and in assay [9] was over 100 µM throughout.

With `[N-]=[N+]=CC(=O)OCC(N)C(=O)O` (stereo not drawn), the GI50 in assay [1] is 0.918 µM; in assay [2], 0.277 µM; in assay [3], 0.638 µM; in assay [4], 2.94 µM; in assay [5], 3.13 µM; in assay [6], 1.7 µM. The GI50 in assay [7] was 0.512 µM; in assay [8], 0.971 µM; in [9], 0.749 µM. In addition, the TGI in [1], in assay [2], in [3], in [4], in assay [5] and in assay [6] was over 100 µM throughout. The TGI in assay [7], in assay [8] and in [9] was over 100 µM throughout.

Regarding `COC(=O)c1c2c(c(C)[n+]([O-])c1C)C(=O)C(NCc1ccc(F)c(F)c1)=CC2=O`, the GI50 in [1] was 1.86 µM; in assay [2] it was 1.15 µM; in assay [10], 2.23 µM; in assay [3], 1.62 µM; in [4], 4.11 µM; in [5] it was 1.84 µM. Further, the GI50 in [6] is 2.48 µM; in assay [7] it was 1.57 µM; in [8] it was 2.5 µM; in assay [9] it was 1.73 µM. In addition, the TGI in assay [1] worked out at 4.4 µM; in assay [2], 7.61 µM; in assay [10], 9.59 µM; in [3], 6.24 µM; in assay [4], 13.8 µM; in assay [5], 4.39 µM. The TGI in assay [6] worked out at 7.68 µM; in assay [7] it was 3.75 µM; in assay [8] it was 6.59 µM; in [9], 4.32 µM.

With `Cc1cccc(N=C2c3cc([N+](=O)[O-])ccc3-c3c2cc([N+](=O)[O-])cc3[N+](=O)[O-])c1`, the GI50 in [1] was 3.35 µM; in [2] it was 4.11 µM; in [10], 2.9 µM; in [3] it was 1.94 µM; in [4] it was 13.3 µM; in [5], 5.08 µM. Further, the GI50 in assay [6] is 3.36 µM; in assay [7], 4.35 µM; in assay [8] it was 18.3 µM; in assay [9] it was 2.14 µM. For the same compound, the TGI in [1] was found to be 13.1 µM; in [2], 27.6 µM; in [10], 10.5 µM; in assay [3], 5.36 µM; in assay [4] it was 31.3 µM; in assay [5] it was 19.7 µM. Besides, the TGI came to 11.5 µM in assay [6], 41.7 µM in [7], 40.2 µM in [8] and 4.8 µM in assay [9].

On to `COC(=O)C1C(=O)O[C@@H](c2ccc(OC)cc2OC)C1C(=O)OC` (stereo partly drawn), for which the TGI in [1], in assay [2], in assay [10], in assay [3], in assay [4] and in assay [5] was over 100 µM in each case. In addition, the TGI in assay [6], in assay [8] and in assay [9] was over 100 µM each time.

`O=C(O)c1cccc(CC(Br)C(=O)O)c1` (stereo not drawn): the TGI in assay [1], in [2], in assay [10], in [3], in assay [4] and in assay [5] was over 100 µM each time. The concentration for total growth inhibition (TGI) in [6], in assay [7], in assay [8] and in assay [9] was over 100 µM throughout.

Regarding `O=C(O)CC1(C(=O)O)CCCCC1`, the TGI in assay [1], in assay [2], in assay [10], in [3], in assay [4] and in [5] was over 100 µM in each case. The TGI in [6], in assay [7], in assay [8] and in [9] was over 100 µM throughout.

As to `COc1ccccc1NC(=O)C1=C(C)NC(C)=C(C(=O)Nc2ccccc2OC)C1c1ccccc1OC`, the TGI in assay [1], in assay [2], in assay [10], in [3], in [4] and in assay [5] was over 100 µM in each case. Also, the TGI in assay [6], in [7], in assay [8] and in assay [9] was over 100 µM each time.

Regarding `CC(C)=CCC/C(C)=C/CC/C(=C/COP(=O)(OCc1ccc([N+](=O)[O-])o1)N(C)CCCCCl)C(C)(C)C` (stereo not drawn), the GI50 is 4.18 µM in assay [1]; 12.5 µM in assay [2]; 6.22 µM in assay [10]; 0.128 µM in [3]; 17.1 µM in assay [4]; 6.48 µM in assay [5]. Besides, the GI50 in assay [7] was 2.66 µM; in assay [8], 16.2 µM; in assay [9] it was 2.6 µM. Further, the TGI in assay [1] was over 100 µM; in assay [2], 38.9 µM; in [10], over 100 µM; in assay [3] it was over 100 µM; in assay [4], 37.5 µM; in [5], 22.4 µM. For the same compound, the values for the TGI in assay [7], in assay [8] and in [9] were 10 µM, 32.8 µM and 7.27 µM, respectively.

In the case of `CCCCCCCCCC(=O)OCC1OC(n2cc(F)c(=O)[nH]c2=O)C(N)C(OC(=O)CCCCCCCCC)C1O` (stereo not drawn), the TGI was determined as 55.1 µM in assay [1]; 35.8 µM in assay [2]; 36.7 µM in assay [10]; 45.3 µM in assay [3]; 30.4 µM in assay [4]; 34.1 µM in [5]. In addition, the figures for the concentration for total growth inhibition (TGI) in [6], in assay [7] and in assay [9] were over 100 µM, 30.1 µM and 32.2 µM, respectively.

As for `CC(=O)OCC1OC(S[As](C)C)C(OC(C)=O)C1OC(C)=O` (stereo not drawn), the GI50 in assay [1] is 0.0813 µM; in assay [10], 0.0721 µM; in [3] it was 0.025 µM; in assay [4] it was 0.446 µM; in assay [5], 1.2 µM; in assay [6], 0.215 µM. Further, the GI50 in assay [7] was 0.139 µM; in [8] it was 0.481 µM; in assay [9], 0.33 µM. Besides, the TGI was determined as 0.648 µM in assay [1]; 0.618 µM in assay [10]; 0.29 µM in assay [3]; 2.73 µM in assay [4]; 9.05 µM in assay [5]; 0.831 µM in assay [6]. In addition, the TGI worked out at 0.528 µM in assay [7], 2.17 µM in assay [8] and 1.51 µM in assay [9].

As for `COC(=O)C1=CC2OC1(C)C1(CC1)C2=O` (stereo not drawn), the total growth inhibition concentration (TGI) in [1] was 16.1 µM; in [2], 25.5 µM; in assay [10] it was 41.9 µM; in assay [3], 34.6 µM; in assay [5], 29 µM; in assay [6], 34.4 µM. Besides, the results for the total growth inhibition concentration (TGI) in [7], in [8] and in assay [9] were 20.7 µM, 57.4 µM and 31 µM, respectively.

Turning to `C/C(=C\c1ccn(-c2ccc(N)cc2)n1)[C@@H]1C[C@@H]2O[C@]2(C)CCC[C@H](C)[C@H](O)[C@@H](C)C(=O)C(C)(C)[C@@H](O)CC(=O)O1`, the concentration for 50% growth inhibition (GI50) is 0.0437 µM in assay [1]; 0.0187 µM in assay [2]; 0.0248 µM in [10]; 0.027 µM in assay [3]; 0.256 µM in assay [5]; 0.161 µM in assay [6]. Besides, the values for the GI50 in [7], in assay [8] and in assay [9] were 0.0356 µM, 0.107 µM and 0.201 µM, respectively. The TGI in assay [1], in assay [2], in assay [10], in assay [3], in [5] and in assay [6] was over 50 µM throughout. Besides, the concentration for total growth inhibition (TGI) is 0.342 µM in assay [7], over 50 µM in assay [8] and over 50 µM in assay [9].

`Cn1cc(C2=C(c3c4n(c5ccccc35)CCC(CN)CC4)C(=O)NC2=O)c2ccccc21` (stereo not drawn): the GI50 in [1] was 5.22 µM; in [2], 2.88 µM; in [10], 4.72 µM; in assay [3], 5.14 µM; in assay [4], 4.17 µM; in [6], 4.43 µM. The GI50 in assay [7] is 4.08 µM; in assay [8] it was 3.51 µM; in assay [9], 3.87 µM. Also, the TGI stood at 11.5 µM in assay [1]; 9.29 µM in assay [2]; 11.9 µM in assay [10]; 16.2 µM in assay [3]; 8.06 µM in assay [4]; 8.67 µM in [6]. The results for the TGI in assay [7], in [8] and in assay [9] were 8.11 µM, 9.14 µM and 8.14 µM, respectively.

As to `CN1CCN(Cc2ccc(Nc3ncc(Cl)c(Nc4ccccc4S(=O)(=O)N(C)C)n3)cc2)CC1`, the GI50 is 0.0175 µM in assay [1]; 0.0308 µM in assay [2]; 0.0386 µM in assay [10]; under 0.01 µM in assay [3]; 0.0497 µM in assay [4]; 0.0317 µM in assay [5]. For the same compound, the values for the GI50 in assay [7], in [8] and in assay [9] were under 0.0246 µM, 0.0378 µM and 0.0399 µM, respectively. Also, the TGI in assay [1] is 0.198 µM; in [2] it was 0.577 µM; in assay [10], over 100 µM; in assay [4] it was 0.415 µM; in [5], 0.366 µM; in assay [7], 0.255 µM. Also, the total growth inhibition concentration (TGI) in assay [8] was over 100 µM; in [9] it was 1.23 µM.

Regarding `CN(C)CC1CCn2c(c(C3=C(c4cn(C)c5ccccc45)C(=O)NC3=O)c3ccccc32)C1` (stereo not drawn), the GI50 in [1] was 5.87 µM; in assay [2] it was 3.16 µM; in assay [10], 4.97 µM; in assay [3], 4.26 µM; in [4], 4.59 µM; in assay [6], 3.88 µM. The figures for the GI50 in assay [7], in assay [8] and in assay [9] were 4.07 µM, 4.61 µM and 3.89 µM, respectively. In addition, the TGI in assay [1] amounted to 11.2 µM; in assay [2], 7.83 µM; in assay [10], 10.5 µM; in [3], 12.7 µM; in assay [4] it was 8.74 µM; in [6], 7.9 µM. The concentration for total growth inhibition (TGI) in assay [7] is 7.95 µM; in assay [8], 12.8 µM; in assay [9] it was 8.11 µM.
